# Measured values reported in PubChem BioAssay AID588844 (Broad Institute, 2011).
# Calls of active or inactive are those of the source. How the calls were made is not given here.
# Test system: not listed separately
# Test: HMLE_shECad cancer stem cell-like viability inhibition, dose response, CellTiter-Glo luminescence, dry powder, set 2 (AID 588844)
# Details: HMLE_shECad viability, CellTiter-Glo luminescence, 72 h; at 32 µM (top of the series)
row,Structure (SMILES),remaining viability fraction
1,Cc1ccc(/C=C/C(=O)NC2=NCCS2)cc1,75.7% (inactive)
2,Cc1csc(NC(=O)c2ccc(COc3cccc(F)c3)o2)n1,65.6% (inactive)
3,COc1ccc(/C=C/C(=O)NC2=NCCS2)c(OC)c1,70.8% (inactive)

# Test system: HMLE_shECad viability, CellTiter-Glo luminescence, 72 h
# Test: as above
# Details: not given
row,Structure (SMILES),AC50
1,CC(C)c1ccc(/C=C/C(=O)NC2=NCCS2)cc1,0.3 µM
2,Cc1csc(NC(=O)c2ccc(COc3ccccc3)o2)n1,0.07 µM
3,Cc1csc(NC(=O)c2ccc(COc3ccccc3F)o2)n1,2.43 µM
4,O=C(NC1CCCC1)c1ccc(COc2ccccc2)o1,23.5 µM
5,O=C(/C=C/c1ccc(-c2ccccc2)cc1)NC1=NCCS1,0.625 µM
6,Cc1csc(NC(=O)c2ccc(COc3cccc(Cl)c3)o2)n1,3 µM
